Test results published in PMC12014842, “An ^211At-labeled alpha-melanocyte stimulating hormone peptide analog for targeted alpha therapy of metastatic melanoma” (European Journal of Nuclear Medicine and Molecular Imaging, 2025).
Read-outs that look alike come from different tables or passages of the source. Each block holds one molecule with its values, some of them ahead of it. Positions of bridges follow the written chain, without caps; N, C: chain ends. Non-standard residues stand in square brackets, D forms with d. Residues, ends and D or L forms follow the SMILES beside them. *: point of attachment. DOTA = O=C(O)CN1CCN(CC(=O)O)CCN(CC(=O)*)CCN(CC(=O)O)CC1; X1 = O=C(Cn1cc(COCC(CO)(CO)CI)nn1)*; Nle = CCCC[C@H](N)C(=O)O

How the values were obtained:
[1] = target: T1, MC1R (B16F10 melanoma cells) (Mus musculus, UniProt Q01727); assay: Receptor binding assay: competitive inhibition of [^125I]I-Tyr^2-NDP-MSH bound to B16F10 melanoma cells; conditions: competition with [^125I]I-Tyr^2-NDP-MSH, 37 °C, 1 h, brackets = 95% confidence interval
T1 construct: endogenous in cells; host or cells: B16F10 melanoma cells (Cell Resource Center for Biomedical Research, Tohoku University)
Protocol: B16F10 cells were obtained from the Cell Resource Center for Biomedical Research (Institute of Development, Aging and Cancer Tohoku University). B16F10 cells were cultivated in RPMI 1640 medium (Nacalai Tesque) supplemented with 10% fetal bovine serum (Thermo Scientific) in a humidified atmosphere containing 5% carbon dioxide at 37 °C. B16F10 cells (5 × 10^5 cells/well) were seeded in a 24-well poly-D-lysine coated plate (Corning) overnight. After the growth medium was removed, a reaction buffer containing 4.8 mg/mL HEPES, 100 U/mL penicillin, 1 mg/mL streptomycin and 2 mg/mL bovine serum albumin was added. Approximately 30,000 counts per minute of [^125I]I-Tyr^2-NDP-MSH and 0.5 pM to 5 µM of the peptides (NpG-GGN1a–NpG-GGN4a and In-DOTA-GGNle-CycMSHhex) were added to each well. The reaction mixture was incubated at 37 °C for 1 h. After incubation, the binding medium was removed, and the cells were rinsed twice with ice-cold phosphate-buffered saline (PBS). The cells were harvested using 0.25% trypsin solution, and the radioactivity was determined using an auto-well gamma counter. Ki values were calculated using GraphPad Prism 8.4.3 (GraphPad Software).

[2] = Log D7.4 measurements (1-octanol / phosphate buffer); type: physicochemical; conditions: 1-octanol / 25 mM phosphate buffer pH 7.4; mean ± SD
Protocol: This experiment was performed according to a previously reported procedure with slight modifications. In brief, an aliquot of radiolabeled GGNle-CycMSHhex analogs (50 kBq/5 µL) was mixed with equal amounts (1.5 mL) of 1-octanol and 25 mM phosphate buffer (pH 7.4). The mixture was vortexed for 1 min and then allowed to stand for 1 min. After repeating the procedure five times, the mixture was centrifuged at 1,500 g for 10 min. Aliquots of 0.5 mL were taken from each phase and their radioactivity was measured with an auto-well γ counter (Wizard 3, PerkinElmer). The partition coefficient was determined by calculating the ratio of counts per minute in the 1-octanol phase to that in the buffer phase and expressed as a common logarithm. The results represent the mean ± SD for each compound.

[3] = Biodistribution in tumor-bearing mice; type: in vivo; conditions: C57BL/6, mouse, iv, total radioactivity, 3 h after i.v. injection, Suppl. Table 1, mean ± SD, n = 4; for tissue uptake dose at 3 h: 7.4 kBq
Protocol: The animal experiments were conducted according to a protocol reviewed and approved by the Chiba University Animal Care Committee (Permit No. 4–183). Five-week-old C57BL/6 mice were subcutaneously xenografted in their right hind legs by injecting B16F10 cells (1.0 × 10^6 cells) suspended in Matrigel (BD Biosciences). When the tumor diameter achieved approximately 10 mm, the mice were subjected to biodistribution studies. Groups of four mice were sacrificed at each postinjection time point. A solution of each radiohalogenated GGNle-CycMSHhex analog or [^111In]In-DOTA-GGNle-CycMSHhex (7.4 kBq/100 µL) was injected into the tumor-bearing mice via the tail vein, and the mice were sacrificed at 3 h postinjection. A solution of [^125I]NpG-GGN4b (7.4 kBq) or [^211At]NpG-GGN4c (40 or 100 kBq) was also injected, and the mice were sacrificed at […] postinjection. Injected radioactivity of [^211At]NpG-GGN4c was 40 kBq for 1 and 3 h postinjection groups and 100 kBq for 24 postinjection group. Blocking studies were performed by co-injection of NDP-MSH (10 µg per mouse) simultaneously with [^125I]NpG-GGN4b (7.4 kBq) or [^211At]NpG-GGN4c (40 kBq), and the mice were sacrificed at 3 h postinjection. The organs of interest were removed, weighed, and radioactivity was estimated using an auto-well gamma counter.

T1 sequence (Q01727 whole entry): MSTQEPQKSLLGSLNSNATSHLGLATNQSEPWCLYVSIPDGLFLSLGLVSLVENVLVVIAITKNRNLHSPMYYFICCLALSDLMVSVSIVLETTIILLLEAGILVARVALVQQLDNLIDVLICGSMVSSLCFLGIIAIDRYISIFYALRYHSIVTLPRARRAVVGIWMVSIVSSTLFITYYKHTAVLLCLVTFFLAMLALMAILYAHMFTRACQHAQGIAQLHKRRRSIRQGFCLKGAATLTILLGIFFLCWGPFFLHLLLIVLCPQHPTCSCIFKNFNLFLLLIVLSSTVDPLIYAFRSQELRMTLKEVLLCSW

Compound: CCCC[C@H](NC(=O)CNC(=O)CNC(=O)[C@@H](CCCNC(=N)N)NC(=O)[C@@H](CCC(=O)O)NC(=O)Cn1cc(COCC(CO)(CO)CI)nn1)C(=O)N[C@H]1CC(=O)NCCCC[C@@H](C(N)=O)NC(=O)[C@H](Cc2c[nH]c3ccccc23)NC(=O)[C@H](CCCNC(=N)N)NC(=O)[C@@H](Cc2ccccc2)NC(=O)[C@H](Cc2c[nH]cn2)NC1=O [NpG-GGN4a] (X1-[dE][dR]GG[Nle]DH[dF]RWK-NH2; lactam 6-11)
Ki [1]: 1.37 nM

Compound: CCCC[C@H](NC(=O)CNC(=O)CNC(=O)Cn1cc(COCC(CO)(CO)CI)nn1)C(=O)N[C@H]1CC(=O)NCCCC[C@@H](C(N)=O)NC(=O)[C@H](Cc2c[nH]c3ccccc23)NC(=O)[C@H](CCCNC(=N)N)NC(=O)[C@@H](Cc2ccccc2)NC(=O)[C@H](Cc2c[nH]cn2)NC1=O [NpG-GGN1a] (X1-GG[Nle]DH[dF]RWK-NH2; lactam 4-9)
Ki [1]: 2.81 nM

Compound: CCCC[C@H](NC(=O)CNC(=O)CNC(=O)CN1CCN(CC(=O)O)CCN(CC(=O)O)CCN(CC(=O)O)CC1)C(=O)N[C@H]1CC(=O)NCCCC[C@@H](C(N)=O)NC(=O)[C@H](Cc2c[nH]c3ccccc23)NC(=O)[C@H](CCCNC(=N)N)NC(=O)[C@@H](Cc2ccccc2)NC(=O)[C@H](Cc2c[nH]cn2)NC1=O [[^111In]In-DOTA-GGNle-CycMSHhex, metal not drawn] ({DOTA}-GG[Nle]DH[dF]RWK-NH2; lactam 4-9)
logD [2]: -3.45 ± 0.17
tissue uptake dose at 3 h ([3]; intestine, read-out: Biodistribution of radioactivity, Intestine): 0.6 ± 0.15 %ID
tissue uptake dose at 3 h ([3]; stomach, read-out: Biodistribution of radioactivity, Stomach): 0.2 ± 0.04 %ID
tissue uptake dose at 3 h ([3]; thyroid, read-out: Biodistribution of radioactivity, Thyroid): 0.01 %ID
tissue uptake at 3 h ([3]; tumor, 7.4 kBq/100 µL): 16.5 ± 1.89 %ID/g

More lines, now with the values ahead:

Ki [1]: 3.24 nM
Compound: CCCC[C@H](NC(=O)CNC(=O)CNC(=O)[C@@H](CCC(=O)O)NC(=O)Cn1cc(COCC(CO)(CO)CI)nn1)C(=O)N[C@H]1CC(=O)NCCCC[C@@H](C(N)=O)NC(=O)[C@H](Cc2c[nH]c3ccccc23)NC(=O)[C@H](CCCNC(=N)N)NC(=O)[C@@H](Cc2ccccc2)NC(=O)[C@H](Cc2c[nH]cn2)NC1=O [NpG-GGN2a] (X1-[dE]GG[Nle]DH[dF]RWK-NH2; lactam 5-10)

Ki [1]: 14.9 nM
Compound: CCCC[C@H](NC(=O)CNC(=O)CNC(=O)[C@@H](CCC(=O)O)NC(=O)[C@@H](CCC(=O)O)NC(=O)Cn1cc(COCC(CO)(CO)CI)nn1)C(=O)N[C@H]1CC(=O)NCCCC[C@@H](C(N)=O)NC(=O)[C@H](Cc2c[nH]c3ccccc23)NC(=O)[C@H](CCCNC(=N)N)NC(=O)[C@@H](Cc2ccccc2)NC(=O)[C@H](Cc2c[nH]cn2)NC1=O [NpG-GGN3a] (X1-[dE][dE]GG[Nle]DH[dF]RWK-NH2; lactam 6-11)
